Measured values: ChEMBL document CHEMBL5465560, “Selectivity Literature for EUbOPEN Chemogenomic Library” (2024)

How the values were obtained:
[1] = target: T1, Tyrosine-protein kinase ITK/TSK (Homo sapiens) (UniProt Q08881); settings: at 10 µM
T1 sequence (whole entry): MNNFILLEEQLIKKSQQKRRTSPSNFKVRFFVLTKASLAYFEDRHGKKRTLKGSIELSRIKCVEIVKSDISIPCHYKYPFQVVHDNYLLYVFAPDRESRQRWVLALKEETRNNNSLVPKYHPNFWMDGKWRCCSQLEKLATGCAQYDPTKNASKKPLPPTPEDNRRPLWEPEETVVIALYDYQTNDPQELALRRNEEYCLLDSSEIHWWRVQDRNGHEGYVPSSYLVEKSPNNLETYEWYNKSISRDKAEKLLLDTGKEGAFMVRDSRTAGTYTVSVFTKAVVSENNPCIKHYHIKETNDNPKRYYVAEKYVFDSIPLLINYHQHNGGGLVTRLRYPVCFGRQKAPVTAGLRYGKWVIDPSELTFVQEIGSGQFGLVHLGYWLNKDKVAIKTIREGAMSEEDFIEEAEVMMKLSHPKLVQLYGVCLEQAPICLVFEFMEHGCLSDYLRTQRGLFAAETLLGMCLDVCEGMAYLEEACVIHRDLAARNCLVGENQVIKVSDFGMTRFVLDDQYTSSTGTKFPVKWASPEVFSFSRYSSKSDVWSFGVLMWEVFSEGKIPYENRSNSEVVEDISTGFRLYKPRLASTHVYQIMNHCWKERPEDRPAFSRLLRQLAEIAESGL

[2] = target: Tyrosine-protein kinase BTK (Homo sapiens, UniProt Q06187); test: Selectivity interaction (Kinome Scan (DiscoverX)) EUB0000229b BTK; settings: at 10 µM
Tyrosine-protein kinase BTK, sequence (Q06187 whole entry): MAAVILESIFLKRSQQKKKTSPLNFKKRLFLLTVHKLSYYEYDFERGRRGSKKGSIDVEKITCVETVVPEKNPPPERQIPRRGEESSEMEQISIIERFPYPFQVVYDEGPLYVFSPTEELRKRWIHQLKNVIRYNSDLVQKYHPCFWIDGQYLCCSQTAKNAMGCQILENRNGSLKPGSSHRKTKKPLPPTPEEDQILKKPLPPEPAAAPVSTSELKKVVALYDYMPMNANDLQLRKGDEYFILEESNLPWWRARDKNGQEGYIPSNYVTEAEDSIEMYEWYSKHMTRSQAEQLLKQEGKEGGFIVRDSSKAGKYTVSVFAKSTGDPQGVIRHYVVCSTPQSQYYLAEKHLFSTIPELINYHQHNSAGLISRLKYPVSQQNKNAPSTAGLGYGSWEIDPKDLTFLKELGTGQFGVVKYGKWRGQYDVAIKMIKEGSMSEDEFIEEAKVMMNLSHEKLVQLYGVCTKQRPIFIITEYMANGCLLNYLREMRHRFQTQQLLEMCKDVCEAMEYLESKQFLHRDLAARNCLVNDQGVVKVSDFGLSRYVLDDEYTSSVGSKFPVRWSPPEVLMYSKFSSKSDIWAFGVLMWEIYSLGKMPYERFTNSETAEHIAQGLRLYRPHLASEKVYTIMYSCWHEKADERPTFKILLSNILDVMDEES

[3] = target: T2, Serine/threonine-protein kinase ICK (Homo sapiens) (UniProt Q9UPZ9); test: Selectivity interaction (KinomeScan (DiscoverX)) EUB0001079a ICK; settings: at 1 µM
T2 sequence (whole entry): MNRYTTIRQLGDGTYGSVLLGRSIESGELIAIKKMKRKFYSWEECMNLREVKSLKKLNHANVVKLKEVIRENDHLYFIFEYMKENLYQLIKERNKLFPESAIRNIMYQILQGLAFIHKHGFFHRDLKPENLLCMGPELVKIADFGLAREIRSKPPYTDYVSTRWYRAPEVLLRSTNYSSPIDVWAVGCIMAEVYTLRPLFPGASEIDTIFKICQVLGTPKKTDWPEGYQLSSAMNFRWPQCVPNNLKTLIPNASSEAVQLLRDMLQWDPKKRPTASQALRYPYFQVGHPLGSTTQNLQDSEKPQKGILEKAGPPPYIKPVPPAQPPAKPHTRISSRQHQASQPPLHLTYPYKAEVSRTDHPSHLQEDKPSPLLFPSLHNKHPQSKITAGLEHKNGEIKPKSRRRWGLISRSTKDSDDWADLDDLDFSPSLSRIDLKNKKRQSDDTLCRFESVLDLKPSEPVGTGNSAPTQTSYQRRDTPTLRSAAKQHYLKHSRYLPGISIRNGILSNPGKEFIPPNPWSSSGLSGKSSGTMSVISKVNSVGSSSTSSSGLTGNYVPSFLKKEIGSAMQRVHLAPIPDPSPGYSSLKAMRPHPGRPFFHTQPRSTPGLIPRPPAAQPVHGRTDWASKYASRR

[4] = target: Ribosomal protein S6 kinase alpha-6 (Homo sapiens, UniProt Q9UK32); test: Selectivity interaction (KinomeScan (DiscoverX)) EUB0001079a RPS6KA6; settings: at 1 µM
Ribosomal protein S6 kinase alpha-6, sequence (Q9UK32 whole entry): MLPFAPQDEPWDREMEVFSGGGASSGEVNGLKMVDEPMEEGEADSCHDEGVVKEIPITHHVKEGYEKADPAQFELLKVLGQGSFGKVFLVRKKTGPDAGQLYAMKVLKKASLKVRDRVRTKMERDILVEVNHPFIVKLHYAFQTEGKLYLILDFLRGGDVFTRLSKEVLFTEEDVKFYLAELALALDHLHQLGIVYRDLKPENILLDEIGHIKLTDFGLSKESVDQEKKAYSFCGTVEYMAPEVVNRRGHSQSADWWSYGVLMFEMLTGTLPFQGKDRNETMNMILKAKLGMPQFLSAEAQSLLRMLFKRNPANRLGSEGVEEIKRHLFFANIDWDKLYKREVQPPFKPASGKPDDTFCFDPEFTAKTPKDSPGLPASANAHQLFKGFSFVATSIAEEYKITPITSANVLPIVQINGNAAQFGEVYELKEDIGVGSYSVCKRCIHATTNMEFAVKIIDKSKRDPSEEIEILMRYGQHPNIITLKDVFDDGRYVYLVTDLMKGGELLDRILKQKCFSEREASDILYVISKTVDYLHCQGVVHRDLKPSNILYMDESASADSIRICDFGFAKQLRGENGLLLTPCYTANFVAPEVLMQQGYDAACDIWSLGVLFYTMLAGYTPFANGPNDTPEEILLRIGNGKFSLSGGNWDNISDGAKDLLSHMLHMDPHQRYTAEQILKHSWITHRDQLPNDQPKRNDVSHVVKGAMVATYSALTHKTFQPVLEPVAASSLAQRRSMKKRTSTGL

[5] = target: T3, Mitogen-activated protein kinase kinase kinase 6 (Homo sapiens) (UniProt O95382); test: Selectivity interaction (KinomeScan (DiscoverX)) EUB0000655a MAP3K6; settings: at 10 µM
T3 sequence (whole entry): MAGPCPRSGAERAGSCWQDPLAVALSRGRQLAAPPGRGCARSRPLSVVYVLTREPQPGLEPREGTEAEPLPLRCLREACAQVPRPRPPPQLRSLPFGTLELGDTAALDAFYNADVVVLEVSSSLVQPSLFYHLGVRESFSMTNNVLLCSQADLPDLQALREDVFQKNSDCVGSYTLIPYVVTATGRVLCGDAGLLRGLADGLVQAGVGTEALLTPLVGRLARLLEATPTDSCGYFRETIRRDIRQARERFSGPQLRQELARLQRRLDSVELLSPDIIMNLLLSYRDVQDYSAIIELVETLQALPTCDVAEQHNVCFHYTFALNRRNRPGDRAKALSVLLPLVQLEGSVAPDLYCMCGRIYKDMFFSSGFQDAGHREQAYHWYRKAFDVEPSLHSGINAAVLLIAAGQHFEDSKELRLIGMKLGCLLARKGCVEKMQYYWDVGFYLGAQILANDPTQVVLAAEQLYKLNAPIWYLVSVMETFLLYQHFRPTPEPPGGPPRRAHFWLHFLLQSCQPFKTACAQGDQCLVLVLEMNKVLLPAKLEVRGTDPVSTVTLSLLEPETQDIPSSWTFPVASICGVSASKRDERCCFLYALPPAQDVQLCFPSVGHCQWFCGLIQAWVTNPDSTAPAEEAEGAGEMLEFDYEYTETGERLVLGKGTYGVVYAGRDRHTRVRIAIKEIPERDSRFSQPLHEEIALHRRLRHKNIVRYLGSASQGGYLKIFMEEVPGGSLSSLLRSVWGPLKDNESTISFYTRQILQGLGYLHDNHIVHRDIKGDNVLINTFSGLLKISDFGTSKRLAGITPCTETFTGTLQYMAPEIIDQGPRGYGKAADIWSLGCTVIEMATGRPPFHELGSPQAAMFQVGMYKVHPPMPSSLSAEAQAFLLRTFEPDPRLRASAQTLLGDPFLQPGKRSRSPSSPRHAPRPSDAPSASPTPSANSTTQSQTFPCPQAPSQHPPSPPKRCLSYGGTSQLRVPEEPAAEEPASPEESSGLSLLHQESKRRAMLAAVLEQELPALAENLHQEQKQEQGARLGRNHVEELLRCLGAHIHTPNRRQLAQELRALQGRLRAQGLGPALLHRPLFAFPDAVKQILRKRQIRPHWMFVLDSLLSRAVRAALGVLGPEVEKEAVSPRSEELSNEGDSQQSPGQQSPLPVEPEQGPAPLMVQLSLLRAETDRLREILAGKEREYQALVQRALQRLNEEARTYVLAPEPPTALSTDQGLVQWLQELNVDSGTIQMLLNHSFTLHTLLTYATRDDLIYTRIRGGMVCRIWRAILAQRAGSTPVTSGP

CCN(CC)CCCCNc1ncc2cc(-c3cc(OC)cc(OC)c3)c(NC(=O)NC(C)(C)C)nc2n1
% of control [1]: 100%

COc1cc(N(C)c2ccnc3ccc(C(F)(F)F)cc23)cc(OC)c1OC
% binding [2]: 100%

Nc1cnc(N2CCc3cc(S(=O)(=O)Nc4c(F)cc(Cl)cc4F)cc(N4CCCC4=O)c32)nc1 [TP-020n]
% of control [3]: 80% | % of control [4]: 86%

CN(C)CCOc1ccc(-c2nc(-c3ccncc3)c(-c3ccc4c(c3)CC/C4=N\O)[nH]2)cc1
% of control [5]: 100%
